Consider 17 compounds from PubChem BioAssay (NCI).

Molecules are shown by their SMILES.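 1) Cells in 96-well plates. 2) Compound, 48 h, 5 concentrations. 3) Linear interpolation between surrounding doses. 4) Unreached endpoint = highest concentration. TGI: total growth inhibition.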

Among the test systems are MDA-N; SN12C renal; OVCAR-3 ovarian; COLO 205 colon; HL-60(TB) leukemia; SF-268 CNS; NCI-H23 lung; IGROV1 ovarian; NCI-H460 lung; HOP-92 NSCLC.
Holding throughout (test): DTP human tumour cell line panel, 48 h

As to `O=C1C(c2c(O)[nH]c3ccc(S(=O)(=O)O)cc23)=Nc2ccccc21`, the TGI with MDA-N, in the assay with SN12C renal, in the assay with OVCAR-3 ovarian, in the assay with COLO 205 colon, in the assay with HL-60(TB) leukemia and in the assay with SF-268 CNS was greater than 100 µM each time. Besides, the TGI in the assay on NCI-H23 lung, in the assay on IGROV1 ovarian, in the assay on NCI-H460 lung and in the assay with HOP-92 NSCLC was greater than 100 µM in each case.
In the case of `CC(C)=CCc1c2c(c3occ(-c4ccc(O)c(O)c4)c(=O)c3c1O)C=CC(C)(C)O2`, the concentration for total growth inhibition (TGI) turned out to be 3.38 µM in the assay with MDA-N; 3.07 µM with SN12C renal; 3.59 µM with OVCAR-3 ovarian; 4.04 µM with COLO 205 colon; 0.246 µM in the assay with HL-60(TB) leukemia; 4.93 µM in the assay on SF-268 CNS. Moreover, the concentration for total growth inhibition (TGI) in the assay on NCI-H23 lung was found to be 3.84 µM; with IGROV1 ovarian it was 6 µM; with NCI-H460 lung it was 3.21 µM; in the assay with HOP-92 NSCLC it was 5 µM.
For `CC1(C)C(c2ccccc2)=[N+]([O-])C(C)(C)N1O`, the TGI in the assay on MDA-N, with SN12C renal, in the assay with OVCAR-3 ovarian, with COLO 205 colon, in the assay on HL-60(TB) leukemia and in the assay with SF-268 CNS was greater than 10 µM throughout. Moreover, the TGI in the assay on NCI-H23 lung, in the assay with IGROV1 ovarian, with NCI-H460 lung and with HOP-92 NSCLC was greater than 10 µM each time.
For the compound `CCNC(=O)Nc1ccccn1`, the concentration for total growth inhibition (TGI) in the assay on MDA-N, in the assay on SN12C renal, with OVCAR-3 ovarian, in the assay on COLO 205 colon, in the assay with HL-60(TB) leukemia and with SF-268 CNS was greater than 100 µM in each case. Moreover, the TGI in the assay on NCI-H23 lung, with IGROV1 ovarian, in the assay with NCI-H460 lung and in the assay on HOP-92 NSCLC was greater than 100 µM throughout.
Take `COP(=O)(O)/C=C/C(NC(=O)C(Cl)(Cl)Cl)c1ccccc1` (stereo not given): the concentration for total growth inhibition (TGI) in the assay with MDA-N, with SN12C renal, with OVCAR-3 ovarian, in the assay on COLO 205 colon, in the assay on HL-60(TB) leukemia and in the assay with SF-268 CNS was greater than 100 µM in each case. For the same compound, the TGI in the assay with NCI-H23 lung, in the assay with IGROV1 ovarian, with NCI-H460 lung and in the assay on HOP-92 NSCLC was greater than 100 µM throughout.
On to `Cc1ccc(S(=O)(=O)Oc2cc(N)c3c(n2)CCC3)cc1`, for which the TGI in the assay with MDA-N, in the assay on SN12C renal, in the assay on OVCAR-3 ovarian, in the assay with COLO 205 colon, in the assay with HL-60(TB) leukemia and in the assay with SF-268 CNS was greater than 100 µM throughout. For the same compound, the TGI in the assay with NCI-H23 lung, in the assay on IGROV1 ovarian, with NCI-H460 lung and with HOP-92 NSCLC was greater than 100 µM in each case.
For the compound `O=C(O)[C@@H]1C[C@@H](O)CN1C(=O)OCc1ccccc1`, the concentration for total growth inhibition (TGI) in the assay on MDA-N, with SN12C renal, in the assay on OVCAR-3 ovarian, in the assay on COLO 205 colon, with HL-60(TB) leukemia and in the assay on SF-268 CNS was greater than 100 µM throughout. For the same compound, the concentration for total growth inhibition (TGI) with NCI-H23 lung, with IGROV1 ovarian, in the assay on NCI-H460 lung and with HOP-92 NSCLC was greater than 100 µM throughout.
Regarding `C=C1[C@@H](O)C[C@@]23CC[C@@H]4[C@@]5(C)CC[C@@H](OC(C)=O)C(C)(C)[C@@H]5C[C@@H](OC5OC(COC(C)=O)C(O)C(O)C5O)[C@@]4(C)C2=CC[C@H]3[C@H]1C` (stereo not given in full), the TGI came out at 17.5 µM in the assay on MDA-N; 21 µM with SN12C renal; 16.2 µM in the assay with OVCAR-3 ovarian; 4.36 µM in the assay on COLO 205 colon; 4.86 µM with HL-60(TB) leukemia; 19 µM in the assay with SF-268 CNS. Besides, the TGI with NCI-H23 lung was 26.5 µM; in the assay with IGROV1 ovarian, 15 µM; in the assay with NCI-H460 lung, 17.2 µM; in the assay with HOP-92 NSCLC, 20.5 µM.
For `O=C(O)C1CC(c2ccc(F)cc2)=Nc2ccc(F)cc2S1` (stereo not given), the TGI in the assay on MDA-N, in the assay with SN12C renal, with OVCAR-3 ovarian, with COLO 205 colon, with HL-60(TB) leukemia and with SF-268 CNS was greater than 100 µM each time. Moreover, the TGI in the assay with NCI-H23 lung, in the assay on IGROV1 ovarian, in the assay with NCI-H460 lung and in the assay on HOP-92 NSCLC was greater than 100 µM each time.
Take `CC(C)(C)NC(=O)[C@H]1CC[C@H]2[C@@H]3CC=C4NC(=O)CC[C@]4(C)[C@H]3CC[C@]12C`: the total growth inhibition concentration (TGI) in the assay on MDA-N, in the assay on SN12C renal, in the assay on OVCAR-3 ovarian, with COLO 205 colon, with HL-60(TB) leukemia and with SF-268 CNS was greater than 100 µM in each case. Besides, the total growth inhibition concentration (TGI) in the assay with NCI-H23 lung, with IGROV1 ovarian, in the assay with NCI-H460 lung and in the assay on HOP-92 NSCLC was greater than 100 µM each time.
Regarding `CCC1=CCC23C(=O)C=CC(=O)C2(C1)C(=O)c1cccc(OC)c1C3=O` (stereo not given), the TGI in the assay on MDA-N worked out at 35.7 µM; in the assay on SN12C renal, 35.2 µM; in the assay on OVCAR-3 ovarian, 27.2 µM; in the assay on COLO 205 colon, 28.4 µM; with HL-60(TB) leukemia it was 7.36 µM; with SF-268 CNS it was 36.2 µM. Also, the TGI in the assay with NCI-H23 lung is 46.4 µM; in the assay with IGROV1 ovarian, 26.9 µM; in the assay on NCI-H460 lung, 62.5 µM; in the assay with HOP-92 NSCLC, 29 µM.
For the compound `O=c1c2ncn(C3CC(O)C(CO)O3)c2nnn1Cc1ccccc1[N+](=O)[O-]` (stereo not given), the concentration for total growth inhibition (TGI) in the assay with MDA-N, in the assay with SN12C renal, with OVCAR-3 ovarian, in the assay with COLO 205 colon, in the assay on HL-60(TB) leukemia and in the assay on SF-268 CNS was greater than 100 µM in each case. For the same compound, the TGI in the assay on NCI-H23 lung, in the assay on IGROV1 ovarian, in the assay with NCI-H460 lung and in the assay with HOP-92 NSCLC was greater than 100 µM in each case.
Turning to `Cc1ccc(S(=O)(=O)N2CCSCCSCCSCCSCC2)cc1`, the TGI is greater than 100 µM in the assay on MDA-N; greater than 96.8 µM in the assay with SN12C renal; 60.7 µM in the assay on OVCAR-3 ovarian; greater than 100 µM in the assay on COLO 205 colon; greater than 100 µM in the assay on HL-60(TB) leukemia; greater than 75.8 µM in the assay on SF-268 CNS. Also, the TGI in the assay on NCI-H23 lung is greater than 92.6 µM; in the assay with IGROV1 ovarian, greater than 100 µM; in the assay with NCI-H460 lung, greater than 100 µM; with HOP-92 NSCLC it was 23.4 µM.
Consider `NC(CSCc1ccccc1)C(=O)O` (stereo not given), for which the total growth inhibition concentration (TGI) in the assay with MDA-N, with SN12C renal, with OVCAR-3 ovarian, in the assay on COLO 205 colon, in the assay with HL-60(TB) leukemia and in the assay on SF-268 CNS was greater than 100 µM in each case. Also, the concentration for total growth inhibition (TGI) in the assay on NCI-H23 lung, in the assay with IGROV1 ovarian, in the assay with NCI-H460 lung and with HOP-92 NSCLC was greater than 100 µM each time.
For the compound `OC[C@@H](O)[C@H]1NC[C@@H](O)[C@H]1O`, the TGI with MDA-N, with SN12C renal, in the assay on OVCAR-3 ovarian, in the assay with COLO 205 colon, with HL-60(TB) leukemia and in the assay on SF-268 CNS was greater than 100 µM in each case. The TGI in the assay with NCI-H23 lung, with IGROV1 ovarian, in the assay with NCI-H460 lung and in the assay with HOP-92 NSCLC was greater than 100 µM each time.
As for `C[n+]1c(-c2ccccc2)cc2/c(=C\c3ccc([N+](=O)[O-])cc3)c3ccccc3n21`, the TGI in the assay on MDA-N is 21.8 µM; in the assay on SN12C renal, greater than 33.6 µM; with OVCAR-3 ovarian, 15.5 µM; in the assay on COLO 205 colon, greater than 100 µM; with HL-60(TB) leukemia, 3.07 µM; in the assay on SF-268 CNS, 29.1 µM. The TGI in the assay on NCI-H23 lung is 13.6 µM; with IGROV1 ovarian it was 9.53 µM; in the assay with NCI-H460 lung it was greater than 100 µM; in the assay on HOP-92 NSCLC, greater than 41.6 µM.
For the compound `Cc1ccccc1OC(C)C(=O)NN1C(=O)CC(=O)N(c2ccc(Cl)cc2)C1=S` (stereo not given), the TGI in the assay on MDA-N is greater than 100 µM; with SN12C renal, greater than 100 µM; with OVCAR-3 ovarian, greater than 100 µM; in the assay with COLO 205 colon, 68.3 µM; in the assay with HL-60(TB) leukemia it was 39.8 µM; with SF-268 CNS, greater than 100 µM. The total growth inhibition concentration (TGI) with NCI-H23 lung is greater than 100 µM; in the assay on IGROV1 ovarian, greater than 100 µM; with NCI-H460 lung it was greater than 100 µM; with HOP-92 NSCLC it was 56.1 µM.
